Measured values from patent US20200131142A1, “FARNESOID X RECEPTOR AGONISTS AND USES THEREOF” (Metacrine, Inc., priority 2017, published 2020).

molecular target: T1, hFXR (Homo sapiens, UniProt Q96RI1); assay: In Vitro FXR Assay (TK): hFXR/hRXR TK-ECRE-luc reporter in transfected CV-1 cells; format: cell-based; settings: 18 hrs incubation, luminescence, compounds with maximum efficacy <25% of the Fexarmine control classified as '+'
T1 construct: expressed in transfected cells; host or cells: CV-1 cells
T1 sequence (Q96RI1 1-486): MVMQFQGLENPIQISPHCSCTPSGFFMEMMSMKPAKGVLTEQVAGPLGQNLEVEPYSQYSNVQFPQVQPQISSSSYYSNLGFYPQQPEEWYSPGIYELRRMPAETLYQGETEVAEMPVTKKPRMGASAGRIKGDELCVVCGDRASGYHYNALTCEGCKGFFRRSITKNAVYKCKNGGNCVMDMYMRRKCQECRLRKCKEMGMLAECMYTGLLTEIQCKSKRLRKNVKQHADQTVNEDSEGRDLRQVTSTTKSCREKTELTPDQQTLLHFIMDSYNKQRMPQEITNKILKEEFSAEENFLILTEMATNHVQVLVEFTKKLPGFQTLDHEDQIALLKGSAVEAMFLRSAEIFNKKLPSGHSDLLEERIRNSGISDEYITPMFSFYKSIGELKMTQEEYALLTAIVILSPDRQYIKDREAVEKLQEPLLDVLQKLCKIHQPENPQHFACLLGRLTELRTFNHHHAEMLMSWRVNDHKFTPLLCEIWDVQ
T1 sequence (P19793 1-462 partner): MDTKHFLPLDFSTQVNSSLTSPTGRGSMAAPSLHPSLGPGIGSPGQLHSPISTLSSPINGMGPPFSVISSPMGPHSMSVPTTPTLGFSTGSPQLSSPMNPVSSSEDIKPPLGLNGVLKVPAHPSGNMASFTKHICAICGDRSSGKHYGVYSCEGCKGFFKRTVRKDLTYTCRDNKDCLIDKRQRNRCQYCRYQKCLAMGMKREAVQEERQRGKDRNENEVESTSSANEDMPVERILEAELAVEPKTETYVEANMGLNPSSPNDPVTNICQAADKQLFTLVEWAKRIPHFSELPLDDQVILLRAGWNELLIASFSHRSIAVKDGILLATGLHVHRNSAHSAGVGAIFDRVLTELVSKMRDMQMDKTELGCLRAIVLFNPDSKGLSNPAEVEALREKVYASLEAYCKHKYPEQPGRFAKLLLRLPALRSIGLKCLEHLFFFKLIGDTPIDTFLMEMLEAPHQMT
In short: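 Reporter gene assay: CV-1 cells co-expressing hFXR, hRXR, TK-ECRE-luc and pCMX-YFP after overnight transfection in charcoal-stripped serum. Treatment with serially diluted compounds lasted 18 hrs at 37 °C, followed by cell lysis and a luminescence measurement.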

Row | Compound | EC50 [nM]
1 | CCO[C@H]1CC[C@H](C(=O)N(C[C@H]2CC[C@H](c3ccc(OC)c(C)c3)CC2)c2cccc(-c3cnc(OC)s3)c2)CC1 [Compound 4, trans-4-Ethoxy-N-((trans-4-(4-methoxy-3-methylphenyl)cyclohexyl)methyl)-N-(3-(2-methoxythiazol-5-yl)phenyl)cyclohexanecarboxamide] | 250 to 1000
2 | COc1ccc([C@H]2CC[C@H](CN(c3cccc(-c4cnc(C(C)=O)s4)c3)C(=O)[C@H]3CC[C@H](O)CC3)CC2)cc1C [Compound 7.24, trans-N-(3-(2-Acetylthiazol-5-yl)phenyl)-4-hydroxy-N-((trans-4-(4-methoxy-3-methylphenyl)cyclohexyl)methyl) cyclohexanecarboxamide] | 250 to 1000
3 | COC(=O)c1ncc(-c2cccc(N(C[C@H]3CC[C@H](c4ccc(OC)c(C)c4)CC3)C(=O)[C@H]3CC[C@H](O)CC3)c2)s1 [Compound 7.27, Methyl 5-(3-(trans-4-hydroxy-N-((trans-4-(4-methoxy-3-methylphenyl)cyclohexyl)methyl)cyclohexanecarboxamido)phenyl)thiazole-2-carboxylate] | 250 to 1000
4 | COc1ccc([C@H]2CC[C@H](CN(c3cccc(-c4cnc(CO)s4)c3)C(=O)[C@H]3CC[C@H](O)CC3)CC2)cc1C [Compound 7.19, trans-4-Hydroxy-N-(3-(2-(hydroxymethyl)thiazol-5-yl)phenyl)-N-((trans-4-(4-methoxy-3-methylphenyl)cyclohexyl)methyl) cyclohexanecarboxamide] | 250 to 1000
5 | COc1ccc([C@H]2CC[C@H](CN(c3cccc(-c4cnc(C5CC5)s4)c3)C(=O)[C@H]3CC[C@H](O)CC3)CC2)nc1C#N [Compound 9.21, trans-N-((trans-4-(6-Cyano-5-methoxypyridin-2-yl)cyclohexyl)methyl)-N-(3-(2-cyclopropylthiazol-5-yl)phenyl)-4-hydroxycyclohexanecarboxamide] | ≤ 250
6 | COc1ccc(C23CCC(CN(c4cccc(C#Cc5nccs5)c4)C(=O)[C@H]4CC[C@H](O)CC4)(CC2)CC3)cc1C [Compound 8.04, trans-4-Hydroxy-N-((4-(4-methoxy-3-methylphenyl)bicyclo[2.2.2]octan-1-yl)methyl)-N-(3-(thiazol-2-ylethynyl)phenyl)cyclohexanecarboxamide] | ≤ 250

Further lines, results first:

Row | EC50 [nM] | Compound
7 | ≤ 250 | COc1ccc([C@H]2CC[C@H](CN(c3cccc(-c4cnc(N5CCOCC5)s4)c3)C(=O)[C@H]3CC[C@H](O)CC3)CC2)cc1C [Compound 7.15, trans-4-Hydroxy-N-((trans-4-(4-methoxy-3-methylphenyl)cyclohexyl)methyl)-N-(3-(2-morpholinothiazol-5-yl)phenyl)cyclohexanecarboxamide]
8 | ≤ 250 | COc1ncc(-c2cccc(N(C[C@H]3CC[C@H](c4ccc5scnc5c4)CC3)C(=O)[C@H]3CC[C@H](O)CC3)c2)s1 [Compound 9.09, trans-N-((trans-4-(Benzo[d]thiazol-5-yl)cyclohexyl)methyl)-4-hydroxy-N-(3-(2-methoxythiazol-5-yl)phenyl)cyclohexanecarboxamide]
9 | ≤ 250 | CCOc1ncc(-c2cccc(N(C[C@H]3CC[C@H](c4ccc(OC)c(C)c4)CC3)C(=O)[C@H]3CC[C@H](O)CC3)c2)s1 [Compound 7.16, trans-N-(3-(2-Ethoxythiazol-5-yl)phenyl)-4-hydroxy-N-((trans-4-(4-methoxy-3-methylphenyl)cyclohexyl)methyl) cyclohexanecarboxamide]
10 | ≤ 250 | CC#Cc1ncc(-c2cccc(N(C[C@H]3CC[C@H](c4ccc(OC)c(C)c4)CC3)C(=O)[C@H]3CC[C@H](O)CC3)c2)s1 [Compound 7.21, trans-4-Hydroxy-N-((trans-4-(4-methoxy-3-methylphenyl)cyclohexyl)methyl)-N-(3-(2-(prop-1-yn-1-yl)thiazol-5-yl)phenyl)cyclohexanecarboxamide]
